# According to EP0616805A1, “Use of acyl L-carnitine gamma-hydroxybutyrate for the treatment of alcoholism” (Sigma-Tau Industrie Farmaceutiche Riunite S.p.A., priority 1993, dated 1994):
# Experiments:
# Type in all cases: in vivo, Wistar male rats
# [1] = test system: alcohol-dependent rats; experiment: modified Vogel test (licks at shock-linked drinking vessel) in alcohol-dependent rats; conditions: 100 mg/kg intraperitoneal at ethanol suspension; rats given 10% ethanol for 6 months; 10 min. exposure period; saline group 38.5 ± 8.5
# Description: Wistar male rats (housed in groups of 5 per cage) were used, kept in conditions of constant light-dark alternation at 21°C and fed with standard laboratory feed. The animals were chronically administered 10% ethanol ad lib. for 6 months.
# To assess the activity, if any, of VCGB on the anxiety component involved in the compulsive act of searching for alcohol, a modified version of the Vogel test was used as described by Keppler D. et al. in Exp. Mol. Path. 9, 279 (1968).
# Prior to the start of the experiment the animals were deprived of water for 48 h. At the time of ethanol treatment suspension, the animals were divided into 4 groups who were given the following intraperitoneal administrations: the first group (A) received saline solution (15 ml/kg), the second group (B) VCGB (100 mg/kg), the third group (C) GHB (100 mg/kg) and the fourth group (D) IVC ([…]).
# On the day of the test, the animals were provided with two drinking vessels, one containing water and the other a mixture of water and ethanol (90:10 v/v) in bottles, the metal spouts of which were connected up to a source of electricity: after every 5 licks at the drinking vessel an electric shock (1 mA) was delivered for 10 min. which obliged the animal to withdraw, overcoming its desire to drink the water-alcohol solution. Refusal of the animals to drink the water-alcohol solution, confining their attention only to the vessel containing water alone, was taken as an indication of efficacy. In evaluating the results, the numbers of licks were compared for treated animals versus controls over the 10 min. exposure period.
# [2] = test system: rats chronically administered 10% ethanol; experiment: alcohol withdrawal syndrome: tremors by the Hunt-Majchrowicz method; conditions: 100 mg/kg intraperitoneal, eight hours after suspension of ethanol; for number of tremors, 30 min: saline group 6 ± 2.5; for number of tremors, 60 min: saline group 8 ± 1.5; for number of tremors, 90 min: saline group 7 ± 1.5; for number of tremors, 120 min: saline group 8 ± 2.5
# Description: The experiment was performed in Wistar male rats housed in groups of 5 per cage under conditions of constant light-dark alternation at 21°C and fed with standard laboratory feed. The animals were chronically administered 10% ethanol ad lib. for 6 months.
# Eight hours after suspension of ethanol administration, the animals were divided into 4 groups of 5 rats each.
# The first group (A) was administered saline solution intraperitoneally (15 ml/kg), the second group (B) was given VCGB (100 mg/kg), again intraperitoneally, the third group (C) received GHB (100 mg/kg), while the fourth group (D) was given IVC (100 mg/kg). For the purposes of assessing the effects induced by the above-mentioned treatments on occurrence of alcohol withdrawal syndrome, tremors were measured in the rat, where, as in man, they are the most characteristic sign of withdrawal syndrome. Evaluation of the number of tremors was done using the method described by Hunt and Majchrowicz (see Hunt W.A. and Majchrovicz E., Journal of Pharmacology and Experimental Therapeutics, 213, 9-12 (1980). The results are given here below in Table 2. TABLE 2.
# [3] = test system: rats chronically treated with alcohol; experiment: alcohol withdrawal syndrome: convulsions on sound stimulation (electric bell, 100 dB, 1 min); conditions: 100 mg/kg intraperitoneal, eight hours after suspension of ethanol; test one hour after treatment; saline group 9/10
# Description: The experiment was performed in Wistar male rats housed in groups of 5 per cage under constant light-dark alternation at 21°C and fed with standard laboratory feed. The animals were chronically administered 10% ethanol ad lib. for 6 months.
# Eight hours after suspension of ethanol administration the animals were divided into 4 groups of 10 rats each. The first group (A) were administered saline solution (15 ml/kg) intraperitoneally, the second group (B) VCGB (100 mg/kg), again intraperitoneally, the third group (C) GHB (100 mg/kg) and the last group (D) IVC (100 mg/kg). For the purposes of evaluating the effects of the treatment on occurrence of alcohol withdrawal syndrome, the rats' susceptibility to onset of behavioral reactions (convulsions) due to emission of sound for 1 min by an electric bell (100 dB) was observed. The experiment was performed in all groups of rats one hour after treatment, and the results are given here below in Table 3.
# [4] = test system: lipoperoxidation in the CNS of rats; experiment: lipoperoxidation in the CNS: cerebral malonaldehyde (MDA) after chronic ethanol treatment; conditions: brain homogenate; 10% ethanol for two months, then 100 mg/kg single intraperitoneal dose; Control 0.543 ± 0.19, Ethanol 1.12 ± 0.13
# Description: This study was conducted in order to assess what variations in malonaldehyde (MDA) occur following VCGB administration, MDA being a reliable and quantifiable index of the vulnerability of the central nervous system to damage due to free radicals as a result of the detrimental effects of ethanol.
# The experiment was conducted in Wistar male rats housed in groups of 5 per cage under constant light-dark alternation at 21°C and fed with standard laboratory feed. Two groups of rats, each comprising 5 animals, were administered 10% ethanol in water throughout the treatment period. A third group of animals was kept on a standard laboratory diet without receiving any treatment. After two months of ethanol treatment the animals in the first group were administered VCGB in aqueous solution (100 mg/kg) in a single intraperitoneal dose. A few days after treatment, the animals were sacrificed and the brains promptly removed. MDA was measured using a modified micromethod described by Slater and Sawyer (Slater T. F. and Sawyer B. C., 1971, J. Biochem. Tokyo 8: 2180). […] The samples were placed in boiling water for 10 min, and after cooling absorbance was determined at 532 nm using a spectrophotometer. […] Proteins were measured by the Smith method (Smith et al., 1985, Analyt. Biochem. 27: 502), using bicinchoninic acid as reagent. […]
SMILES,Number of licks [1],"number of tremors, 30 min [2]","number of tremors, 60 min [2]","number of tremors, 90 min [2]","number of tremors, 120 min [2]",Animals with convulsions/animals treated [3],MDA [4]
"O=C(O)CCCO [GHB, gamma-hydroxybutyric acid]",11 ± 2.4 ▲,2 ± 0.5,1 ± 0.5,2 ± 1,3 ± 1,4/10,
"CC(C)CC(=O)O[C@H](CC(=O)[O-])C[N+](C)(C)C [IVC, isovaleryl L-carnitine]",35.2 ± 7.4,4 ± 2,5 ± 2,5 ± 1.5,6 ±2,6/10,
"CC(C)CC(=O)O[C@H](CC(=O)OCCCC(=O)[O-])C[N+](C)(C)C [VCGB, isovaleryl L-carnitine gamma-hydroxybutyrate]",5.6 ± 1.14,0 ± 0.25,0 ± 0,0 ± 0.75,0 ± 0.25,1/10,0.497 ± 0.15 nmol/mg protein
